What all share (type): cell-based
In experiment [1] the test system is HCT-116 human colon cancer cells (p53 wild type). Description: In vitro antiproliferative activity, MTS assay. Particulars: HCT-116, 72 h incubation, MTS, read-out: HCT-116 IC50. How it is done:
The antiproliferative activity of all of the compounds was examined against the human colon cancer (HCT-116) cell line using an MTS assay. The HCT-116 p53 wild type cell line was chosen on the basis of our former experience and some results on the activity of quinoline-based thiosemicarbazones that was published recently. Namely, compounds 4a–l have been tested previously for their wide-ranging anticancer activity. The antiproliferative activity of the compounds evaluated was assessed using Doxorubicin as a reference compound. In general, quinoline-based thiosemicarbazones 4 seem to have a much better anticancer activity than halogenophenyl compounds 3. Thus, the quinoline nucleus can be defined as being crucial for antiproliferative activity. A more detailed analysis of the anticancer activity of quinoline-based thiosemicarbazone is available. […] Nevertheless, some more general conclusions can be drawn from the gathered data. […] The free amino group or substitution pattern with small substituents such as methyl or ethyl are favorable for activity. According to our former results the chelating ability of the compounds may be one of the prerequisites of the antiproliferative activity. In this study we have measured the UV-VIS spectra of the compounds in presence of various concentration of Fe^3+ cations to observe its chelating potency (supplementary material). […] However as 4j give also two points at 330 and 385 nm, iron chelating ability should be regarded only as one of the factor influencing the biological activity.
The human colon cancer cell line HCT116 with the wild type p53 gene (p53^+/+) were obtained from Maria Sklodowska-Curie Memorial Cancer Center in Gliwice, Poland. Briefly, the cells were seeded in 96-well plates (3 × 10^3 cells/well) in cellular proliferation assays 24 h before the addition of the chelators. The assay was performed following a 72 h incubation with varying concentrations of the agents. Each compound was tested in triplicate in a single experiment with each experiment being repeated 3 times. After 72 h incubation with the compounds being investigated, 20 µL of MTS solution was added to each well (100 µL) and incubated for 1 h at 37 °C. The optical densities of the samples were analyzed at 490 nm. Results were expressed as a percentage of the control. The inhibitory concentration (IC50) was defined as the compound concentration necessary to reduce the absorbance to 50% of the untreated control.

In another experiment the test system is Candida krusei ATCC 6258. Description: In vitro antifungal susceptibility, broth microdilution. To be noted: Pichia kudriavzevii, read-out: MIC (IC80) CK. In general terms: Broth dilution looks for growth in wells or tubes with falling amounts of substance.
In another experiment the test system is Candida glabrata 20/I. Described as above. To be noted: Nakaseomyces glabratus, read-out: MIC (IC80) CG.
The next experiment concerns Absidia corymbifera 272. The experiment is described as above. To be noted: read-out: MIC (IC50) AC.
Setting [2] is: Lichtheimia corymbifera, 272, 24 h.
Where [3] appears, read: Lichtheimia corymbifera, 272, 48 h.

Usually IC50 stands for the point on the concentration scale where inhibition reaches its midpoint. A word on the MIC: it is the lowest concentration that inhibits growth of the organism.

In brackets after ≈: the same amount, converted by molar mass. Read-outs that look alike come from different tables or passages of the source. Bounds are passed on as bounds.

As for `CN(C)C(=S)N/N=C/c1ccc(Cl)c(Cl)c1` [Compound 3h, (E)-2-(3,4-Dichlorobenzylidene)-N,N-dimethylhydrazinecarbothioamide], the values for the IC50 (in experiment [1]; in the experiment on Absidia corymbifera 272 (setting [2]); with Absidia corymbifera 272 (setting [3])) were 47 ± 1.3 µM, greater than 500 µM and greater than 500 µM, respectively. Also, the MIC with Candida krusei ATCC 6258 (ATCC6258, 24 h) amounted to 500 µM (≈ 138 µg/mL); in the experiment on Candida krusei ATCC 6258 (ATCC6258, 48 h), 500 µM (≈ 138 µg/mL); with Candida glabrata 20/I (24 h) it was 500 µM (≈ 138 µg/mL); in the experiment on Candida glabrata 20/I (48 h) it was 500 µM (≈ 138 µg/mL).
As for `CN(C)C(=S)N/N=C/c1ccc(Br)cc1` [Compound 3m, (E)-2-(4-bromobenzylidene)-N,N-dimethylhydrazinecarbothioamide], the IC50 in experiment [1] was 47.5 ± 2.4 µM; in the experiment on Absidia corymbifera 272 (setting [2]), greater than 500 µM; with Absidia corymbifera 272 (setting [3]), greater than 500 µM. Moreover, the MIC is greater than 500 µM in the experiment on Candida krusei ATCC 6258 (ATCC6258, 24 h); greater than 500 µM in the experiment with Candida krusei ATCC 6258 (ATCC6258, 48 h); greater than 500 µM in the experiment with Candida glabrata 20/I (24 h); greater than 500 µM in the experiment on Candida glabrata 20/I (48 h).
On to `NC(=S)N/N=C/c1ccc(Br)cc1` [Compound 3k, (E)-2-(4-Bromobenzylidene)hydrazinecarbothioamide], for which the IC50 in experiment [1] was greater than 60 µM; in the experiment on Absidia corymbifera 272 (setting [2]), greater than 500 µM; in the experiment on Absidia corymbifera 272 (setting [3]), greater than 500 µM. Further, the MIC in the experiment with Candida krusei ATCC 6258 (ATCC6258, 24 h) is greater than 500 µM; in the experiment with Candida krusei ATCC 6258 (ATCC6258, 48 h), greater than 500 µM; with Candida glabrata 20/I (24 h) it was greater than 500 µM; in the experiment with Candida glabrata 20/I (48 h) it was greater than 500 µM.

The record behind these values is paper PMC6268061, “Investigation of the Biological Properties of (Hetero)Aromatic Thiosemicarbazones” (Molecules, 2012).
